The supplement of paper PMC10307832

Tests used:
Experiment in all cases: relative viability (nuclei count vs DMSO), 5 days (fraction); higher = more cells survive
Selisistat + Crizotinib = compound: C1CC(C2=C(C1)C3=C(N2)C=CC(=C3)Cl)C(=O)N [Selisistat] + C[C@@H](Oc1cc(-c2cnn(C3CCNCC3)c2)cnc1N)c1c(Cl)ccc(F)c1Cl [Crizotinib] (partner 1 µM)
Outline: (§1)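 Lung cancer cell lines in 1536-well plates got either a single drug or a fixed anchor-drug dose together with five library-drug doses (not always all listed) in √10 steps, by pin tool, on the day after seeding. Nuclei were counted after 5 days, and relative viability is the treated-to-vehicle ratio of nuclei counts. Values are medians of duplicate plates.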

Selisistat + Decitabine = compound: C1CC(C2=C(C1)C3=C(N2)C=CC(=C3)Cl)C(=O)N [Selisistat] + Nc1ncn([C@H]2C[C@H](O)[C@@H](CO)O2)c(=O)n1 [Decitabine] (partner 2 µM)
Outline: as §1

Serdemetan + Tozasertib = compound: c1ccc2c(CCNc3ccc(Nc4ccncc4)cc3)c[nH]c2c1 [Serdemetan] + Cc1cc(Nc2cc(N3CCN(C)CC3)nc(Sc3ccc(NC(=O)C4CC4)cc3)n2)n[nH]1 [Tozasertib] (partner 0.1 µM)
Outline: as §1

Serdemetan + Vorinostat = compound: c1ccc2c(CCNc3ccc(Nc4ccncc4)cc3)c[nH]c2c1 [Serdemetan] + O=C(CCCCCCC(=O)Nc1ccccc1)NO [Vorinostat] (partner 1 µM)
Outline: as §1

Cell Line | relative viability (Selisistat + Crizotinib; first compound 0.4 µM) | relative viability (Selisistat + Crizotinib; first compound 1.265 µM) | relative viability (Selisistat + Crizotinib; first compound 4 µM) | relative viability (Selisistat + Crizotinib; first compound 12.65 µM) | relative viability (Selisistat + Crizotinib; first compound 40 µM) | relative viability (Selisistat + Decitabine; first compound 0.4 µM) | relative viability (Selisistat + Decitabine; first compound 1.265 µM) | relative viability (Selisistat + Decitabine; first compound 4 µM) | relative viability (Selisistat + Decitabine; first compound 12.65 µM) | relative viability (Selisistat + Decitabine; first compound 40 µM) | relative viability (Serdemetan + Tozasertib; first compound 0.04 µM) | relative viability (Serdemetan + Tozasertib; first compound 0.1265 µM) | relative viability (Serdemetan + Tozasertib; first compound 0.4 µM) | relative viability (Serdemetan + Tozasertib; first compound 1.265 µM) | relative viability (Serdemetan + Tozasertib; first compound 4 µM) | relative viability (Serdemetan + Vorinostat; first compound 0.04 µM) | relative viability (Serdemetan + Vorinostat; first compound 0.1265 µM) | relative viability (Serdemetan + Vorinostat; first compound 0.4 µM) | relative viability (Serdemetan + Vorinostat; first compound 1.265 µM) | relative viability (Serdemetan + Vorinostat; first compound 4 µM)
HCC-44 | 0.804 | 0.788 | 0.957 | 0.871 | 0.801 | 0.976 | 1.01 | 0.943 | 1.01 | 1.07 | 1 | 1.04 | 0.765 | 0.915 | 0.869 | 1.05 | 1.12 | 1.05 | 1.05 | 0.825
HCC-827 | 0.954 | 0.873 | 0.946 | 0.838 | 0.883 | 0.313 | 0.375 | 0.31 | 0.321 | 0.291 | 0.406 | 0.393 | – | 0.297 | 0.308 | 0.827 | 0.466 | – | 0.597 | 0.449
NCI-H1623 | – | – | – | – | – | – | – | – | – | – | 0.421 | 0.517 | 0.349 | 0.385 | 0.399 | – | – | – | – | –
NCI-H2347 | 0.814 | 0.946 | 0.566 | 0.813 | 0.84 | 0.695 | 0.633 | – | 0.677 | 0.624 | 0.623 | 0.602 | 0.572 | 0.588 | 0.399 | 0.648 | 0.53 | 0.703 | 0.334 | 0.414
PC-14 | 0.834 | 0.877 | 0.991 | 0.919 | 0.936 | 0.201 | 0.217 | 0.221 | 0.237 | 0.243 | 0.522 | 0.595 | – | 0.548 | 0.428 | 0.718 | 0.811 | – | 0.645 | 0.266
NCI-H1651 | 0.866 | 0.893 | 0.907 | 0.802 | 0.855 | 0.673 | 0.699 | 0.484 | 0.58 | 0.624 | 0.696 | 0.613 | 0.338 | 0.343 | 0.292 | 0.573 | 0.386 | 0.509 | 0.492 | 0.336
HARA | 0.95 | 1.01 | 1 | 1 | 0.981 | 0.777 | 0.529 | – | 0.48 | 0.647 | 0.0876 | 0.0858 | 0.0868 | 0.0805 | 0.0776 | 0.527 | 0.565 | 0.492 | 0.483 | 0.274
NCI-H1650 | 1.09 | 0.966 | 0.909 | 0.899 | 0.955 | 0.545 | 0.422 | 0.382 | 0.481 | 0.438 | 0.415 | 0.483 | 0.405 | 0.389 | 0.351 | 0.406 | 0.663 | 0.518 | 0.291 | 0.42
NCI-H1395 | – | – | – | – | – | 0.781 | 0.633 | – | 0.657 | 0.809 | 0.736 | 0.742 | 0.838 | 0.751 | 0.513 | 0.574 | 0.848 | 0.696 | 0.526 | 0.508
LU99A | 0.568 | 0.438 | 0.662 | 0.493 | 0.677 | 0.947 | 0.928 | 0.847 | 0.792 | 0.907 | 0.321 | 0.297 | 0.265 | 0.183 | 0.185 | 0.535 | 0.459 | 0.379 | 0.211 | 0.249
